The source of these data is ChEMBL document CHEMBL1201862, “PubChem BioAssay data set” (2004).

Among the test systems are EKVX; HCC 2998; HCT-15; HOP-62; KM12; LOX IMVI; MCF7; MOLT-4; Malme-3M; NCI-H23; NCI-H460; NCI-H522; PC-3; RPMI-8226; SK-MEL-28; SNB-19; SW-620; U-251; UO-31.
Common to all, as to experiment: NCI-60 cell line screen, 48 h

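In this assay, cells in 96-well plates receive the compound at five concentrations for 48 hours. Endpoints are linearly interpolated between the surrounding concentrations. Abbreviation: GI50, concentration required for 50% inhibition of growth.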 The source made the active and inactive calls. No stated cut-off is given here; in the data, active = GI50 up to about 1.1 µM and inactive = higher.

With `COc1ccccc1-c1c(C#N)c(N)[nH]c(=S)c1C#N`, the GI50 in the test on EKVX is 43 µM (inactive); in the test on HCC 2998, 74.3 µM (inactive); in the test with HCT-15, more than 100 µM; with HOP-62, > 100 µM (inactive); in the test with KM12, 62.8 µM (inactive); with LOX IMVI, 65.2 µM (inactive). Besides, the GI50 was 44.5 µM (inactive) in the test with MCF7; 11.5 µM (inactive) in the test with MOLT-4; 80.4 µM (inactive) in the test with Malme-3M; > 100 µM (inactive) with NCI-H23; 67 µM (inactive) in the test with NCI-H460; 23.2 µM (inactive) with NCI-H522. Also, the GI50 was 32.1 µM (inactive) with PC-3; 20.5 µM (inactive) with RPMI-8226; 71.6 µM (inactive) with SK-MEL-28; > 100 µM (inactive) in the test with SNB-19; 27.4 µM (inactive) in the test with SW-620; 48.1 µM (inactive) with U-251. Also, in the test with UO-31, the GI50 is 93.1 µM (inactive).

Take `Clc1cc2ccccc2c2ccccc12`: the GI50 was 41.5 µM (inactive) in the test on EKVX; 41 µM (inactive) in the test on HCC 2998; 25.6 µM with HCT-15; > 100 µM (inactive) with HOP-62; 47.9 µM (inactive) with KM12; 53.7 µM (inactive) in the test with LOX IMVI. Further, the GI50 was 31.7 µM (inactive) in the test with MCF7; 69.2 µM (inactive) in the test on MOLT-4; 37 µM (inactive) in the test with Malme-3M; 81.5 µM (inactive) with NCI-H23; 44.8 µM (inactive) in the test on NCI-H460; 33.8 µM (inactive) in the test on NCI-H522. Moreover, the GI50 with PC-3 is 50.2 µM (inactive); in the test on RPMI-8226, 31.9 µM (inactive); with SK-MEL-28, 46.2 µM (inactive); with SNB-19, 43 µM (inactive); in the test on SW-620, 90.6 µM (inactive); in the test with U-251, 44 µM (inactive). Also, in the test with UO-31, the GI50 is 97.3 µM (inactive).

As to `C[C@]12CC[C@@H]3c4ccc(OC(=O)c5ccccc5)cc4CC[C@H]3[C@@H]1CC[C@@H]2Oc1c2ccccc2nc2ccccc12`, the GI50 in the test on EKVX was 1.52 µM (inactive); in the test on HCC 2998, 7.05 µM (inactive); with HCT-15, 9.73 µM; in the test with HOP-62, 8.17 µM (inactive); in the test with KM12 it was 14 µM (inactive); in the test with LOX IMVI, 7.85 µM (inactive). Moreover, the GI50 in the test with MCF7 is 17 µM (inactive); with MOLT-4 it was 8.87 µM (inactive); in the test with Malme-3M, 7.94 µM (inactive); with NCI-H23, 12.4 µM (inactive); in the test on NCI-H460, 8.53 µM (inactive); in the test on NCI-H522, 8.15 µM (inactive). The GI50 in the test with PC-3 was 8.93 µM (inactive); in the test with RPMI-8226, 7.69 µM (inactive); with SK-MEL-28 it was 12 µM (inactive); with SNB-19, 7.45 µM (inactive); in the test with SW-620 it was 16.9 µM (inactive); in the test on U-251, 8.41 µM (inactive). In addition, the GI50 in the test with UO-31 is 13.2 µM (inactive).

With `O=C(O)C12C3C4(C(=O)O)C1C1(C(=O)O)C2C3(C(=O)O)C41` (stereo unspecified), the GI50 in the test with EKVX is > 100 µM (inactive); in the test on HCC 2998 it was > 100 µM (inactive); with HCT-15, more than 100 µM; with HOP-62, > 100 µM (inactive); with KM12 it was > 100 µM (inactive); in the test on LOX IMVI it was > 100 µM (inactive). Also, the GI50 with MCF7, in the test on MOLT-4, in the test with Malme-3M, in the test on NCI-H23, in the test on NCI-H460 and in the test with NCI-H522 was > 100 µM (inactive) in each case. Also, the GI50 in the test on PC-3, with RPMI-8226, with SK-MEL-28, in the test on SNB-19, in the test on SW-620 and in the test with U-251 was > 100 µM (inactive) in each case. Also, in the test with UO-31, the GI50 was > 100 µM (inactive).
